In patent publication US6500842B1, “8-hydroxy-7-substituted quinolines as anti-viral agents” (Pharmacia & Upjohn Company, priority 1996, dated 2002):
“And” between values parts separate entries of the source, which are not always exact repeats. Equal values may be shown once. Read-outs that look alike come from different tables or passages of the source.

Experiments:
HCMV polymerase = biological target: T1, HCMV polymerase (Human cytomegalovirus, UniProt P08546); experiment: HCMV polymerase assay (scintillation proximity assay); format: biochemical; conditions: pol type CMV
T1 construct: made in house; host or cells: recombinant baculovirus-infected SF-9 cells
T1 sequence (P08546 whole entry): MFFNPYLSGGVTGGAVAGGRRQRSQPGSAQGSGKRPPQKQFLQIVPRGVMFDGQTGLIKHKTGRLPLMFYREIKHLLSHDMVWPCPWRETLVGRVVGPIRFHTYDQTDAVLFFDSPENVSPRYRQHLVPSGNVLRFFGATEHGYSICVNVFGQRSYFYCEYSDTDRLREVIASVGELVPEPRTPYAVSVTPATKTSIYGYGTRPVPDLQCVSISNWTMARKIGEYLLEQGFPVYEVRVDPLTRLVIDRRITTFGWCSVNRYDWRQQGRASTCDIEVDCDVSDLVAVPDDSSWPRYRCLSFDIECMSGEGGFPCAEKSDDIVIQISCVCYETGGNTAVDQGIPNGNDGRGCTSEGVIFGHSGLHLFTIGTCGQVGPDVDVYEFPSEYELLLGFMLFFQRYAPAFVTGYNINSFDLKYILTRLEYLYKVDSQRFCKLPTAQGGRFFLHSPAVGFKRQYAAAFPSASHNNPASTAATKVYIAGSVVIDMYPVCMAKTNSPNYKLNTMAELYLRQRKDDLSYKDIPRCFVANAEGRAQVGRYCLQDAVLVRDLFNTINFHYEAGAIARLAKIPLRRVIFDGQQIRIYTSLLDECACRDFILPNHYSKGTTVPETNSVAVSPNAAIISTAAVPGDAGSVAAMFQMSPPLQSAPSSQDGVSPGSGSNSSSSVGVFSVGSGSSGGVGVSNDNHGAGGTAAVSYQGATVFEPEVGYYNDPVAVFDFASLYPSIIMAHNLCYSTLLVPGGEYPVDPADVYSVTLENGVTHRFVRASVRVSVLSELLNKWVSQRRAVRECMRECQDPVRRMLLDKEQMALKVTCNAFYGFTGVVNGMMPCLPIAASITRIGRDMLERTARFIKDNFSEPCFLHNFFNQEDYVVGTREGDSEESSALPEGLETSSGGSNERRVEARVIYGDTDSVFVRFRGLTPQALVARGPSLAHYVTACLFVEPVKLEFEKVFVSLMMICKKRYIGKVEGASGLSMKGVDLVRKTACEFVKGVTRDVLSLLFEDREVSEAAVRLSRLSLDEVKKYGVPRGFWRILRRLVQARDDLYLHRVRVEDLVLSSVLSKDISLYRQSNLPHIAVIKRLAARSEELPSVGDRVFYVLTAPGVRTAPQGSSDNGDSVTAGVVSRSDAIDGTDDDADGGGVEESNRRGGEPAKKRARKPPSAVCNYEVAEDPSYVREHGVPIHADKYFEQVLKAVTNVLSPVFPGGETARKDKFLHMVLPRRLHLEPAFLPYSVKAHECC
In short: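 Baculovirus/SF-9-expressed purified enzyme in HEPES pH 7.5, KCl, 4.5 mM MgCl2, BSA, with 90 nM ³H-dTTP, ± 2 mM CHAPS; started with 6 nM biotinylated poly(dA)-oligo(dT), 30 min, stopped with EDTA. Incorporation read by streptavidin SPA beads; IC50 by linear regression.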

[1] = Table 1, read-out: CMV pol Assay IC50

IC50 (HCMV polymerase; [1])	melting point	IC50 (HCMV polymerase; Table 2, read-out: IC50)	IC50 (HCMV polymerase; Table 5, read-out: IC50)	SMILES
2.5 µM	148 to 151 °C			O=C(NCc1ccc(Cl)cc1)c1cc(Br)c2cccnc2c1O [Example 9, 5-Bromo-N-[(4-chlorophenyl)methyl]-8-hydroxy-7-quinolinecarboxamide]
19 µM	95 to 98 °C			Cc1ccc2ccc(C(=O)NCc3ccc(Cl)cc3)c(O)c2n1 [Example 10, N-[(4-Chlorophenyl)methyl]-8-hydroxy-2-methyl-7-quinolinecarboxamide]
1.3 µM	163 to 166 °C			O=C(NCc1ccc(Cl)cc1)c1cc(Cl)c2cccnc2c1O [Example 11, 5-Chloro-N-[(4-chlorophenyl)methyl]-8-hydroxy-7-quinolinecarboxamide]
1.6 µM	214 to 216 °C			O=C(Nc1ccc(Cl)cc1)c1cc(Cl)c2cccnc2c1O [Example 15, 5-Chloro-N-(4-chlorophenyl)-8-hydroxy-7-quinolinecarboxamide]
5.8 µM	184 to 185 °C			O=C(NCc1ccc(Cl)cc1)c1cc(F)c2cccnc2c1O [Example 16, 5-Fluoro-N-[[4-chlorophenyl]methyl]-8-hydroxy-7-quinolinecarboxamide]
	158 to 161 °C (dec.)	11.3 µM		Cc1ccc2c(Cl)cc(S(=O)(=O)NCc3ccc(Cl)cc3)c(O)c2n1 [Example 17, 5-Chloro-N-[(4-chlorophenyl)methyl]-8-hydroxy-2-methyl-7-quinolinesulfonamide]
	189 to 190 °C (dec.)	27.9 µM		O=S(=O)(NCc1ccc(Cl)cc1)c1cc(Cl)c2cccnc2c1O [Example 18, 5-Chloro-N-[(4-chlorophenyl)methyl]-8-hydroxy-7-quinoline-sulfonamide]
	162 to 163 °C (dec.)	23.6 µM		CC(C)(C)c1ccc2c(Cl)cc(S(=O)(=O)NCc3ccc(Cl)cc3)c(O)c2n1 [Example 19, 5-Chloro-N-[(4-chlorophenyl)methyl]-2-(1,1-dimethylethyl)-8-hydroxy-7-quinolinesulfonamide]
	97 °C (dec.)	14.5 µM		O=S(=O)(Nc1ccc(Cl)cc1)c1cc(Cl)c2cccnc2c1O [Example 20, 5-Chloro-N-(4-chlorophenyl)-8-hydroxy-7-quinoline-sulfonamide]
	210 to 212 °C (dec.)	7.5 µM and 12.6 µM		Br.O=S(=O)(NCCCc1ccccc1)c1cc(Cl)c2cccnc2c1O [Example 21, 5-Chloro-8-hydroxy-N-(3-phenylpropyl)-7-quinolinesulfonamide monohydrobromide]
	192 to 194 °C	2 µM and 3.1 µM		O=S(=O)(NCCc1ccc(Cl)cc1)c1cc(Cl)c2cccnc2c1O [Example 23, 5-Chloro-N-[2-(4-chlorophenyl)ethyl]-8-hydroxy-7-quinoline-sulfonamide]
	132 to 135 °C	3.6 µM		Cc1ccc2c(Cl)cc(S(=O)(=O)NCCc3ccc(Cl)cc3Cl)c(O)c2n1 [Example 25, 5-Chloro-N-[2-(2,4-dichlorophenyl)ethyl]-8-hydroxy-2-methyl-7-quinolinesulfonamide]
	136 to 139 °C	4.6 µM		Cc1ccc2c(Cl)cc(S(=O)(=O)NCCSc3ccccc3)c(O)c2n1 [Example 26, 5-Chloro-8-hydroxy-2-methyl-N-[2-(phenylthio)ethyl]-7-quinolinesulfonamide]
	113 to 114 °C	14.8 µM		Cc1ccc2c(Cl)cc(S(=O)(=O)NCc3ccccc3)c(O)c2n1 [Example 27, 5-Chloro-8-hydroxy-2-methyl-N-(phenylmethyl)-7-quinoline-sulfonamide]
	284 to 287 °C (dec.)	5.5 µM		Cc1ccc2c(Cl)cc(S(=O)(=O)Nc3ccc(Cl)cc3)c(O)c2n1 [Example 28, 5-Chloro-N-(4-chlorophenyl)-8-hydroxy-2-methyl-7-quinoline-sulfonamide]
	85 to 100 °C	18.3 µM and 40.1 µM		CCCCCCCCNS(=O)(=O)c1cc(Cl)c2ccc(C)nc2c1O [Example 29, 5-Chloro-8-hydroxy-2-methyl-N-octyl-7-quinolinesulfonamide]
	52 to 54 °C	12.8 µM		Cc1ccc2c(Cl)cc(S(=O)(=O)NCc3cccc(Cl)c3)c(O)c2n1 [Example 33, 5-Chloro-N-[(3-chlorophenyl)methyl]-8-hydroxy-2-methyl-7-quinolinesulfonamide]
	135 to 140 °C (dec.)		23.3 µM	O=C(NCc1ccc(Cl)cc1)c1ccc2c(O)cc(C(F)(F)F)nc2c1O [Example 46, N-[(4-Chlorophenyl)methyl]-4,8-dihydroxy-2-trifluoromethyl-7-quinolinecarboxamide]
	115 to 116 °C		0.5 µM and < 3.1 µM	CCCCCCCNC(=O)c1ccc2ccc(/C=C/c3ccc(OC)cc3)nc2c1O [Example 48, N-Heptyl-8-hydroxy-2-[2-(4-methoxyphenyl)ethenyl]-7-quinolinecarboxamide]
	164 to 167 °C			Cc1ccc(NC(=O)c2ccc3cccnc3c2O)c(C)c1 [Example 166, N-(2,4-Dimethylphenyl)-8-hydroxy-7-quinolinecarboxamide]

The remaining lines, values behind:

SMILES	IC50 (HCMV polymerase; [1])	melting point	IC50 (HCMV polymerase; Table 2, read-out: IC50)	IC50 (HCMV polymerase; Table 5, read-out: IC50)
O=C(Nc1nnc(Cc2ccc(Cl)cc2)s1)c1ccc2cccnc2c1O [Example 2, N-[5-[(4-Chlorophenyl)methyl]-1,3,4-thiadiazol-2-yl]-8-hydroxy-7-quinolinecarboxamide]	4.3 µM	276 to 278 °C		
O=C(Nc1ccc(Cl)cc1)c1ccc2cccnc2c1O [Example 3, N-(4-Chlorophenyl)-8-hydroxy-7-quinolinecarboxamide]	7.1 µM	207 to 209 °C		
O=C(Nc1ccc(Cl)cc1)c1cc(Br)c2cccnc2c1O [Example 4, 5-Bromo-N-(4-chlorophenyl)-8-hydroxy-7-quinolinecarboxamide]	3.9 µM and 3.1 µM and 5.1 µM	213 to 215 °C		
O=C(NC1=NC(=O)C(c2ccc(Cl)cc2)S1)c1ccc2cccnc2c1O (centres unmarked) [Example 5, N-[5-(4-Chlorophenyl)-4,5-dihydro-4-oxo-2-thiazolyl]-8-hydroxy-7-quinolinecarboxamide]	6.8 µM	272 to 276 °C (dec.)		
O=C(Nc1ncc(-c2ccc(Br)s2)s1)c1ccc2cccnc2c1O [Example 7, N-[5-(5-Bromo-2-thienyl)-2-thiazolyl]-8-hydroxy-7-quinolinecarboxamide]	6.9 µM	279 to 281 °C (dec.)		
O=C(NC1=NC(=O)C(c2cccc(Cl)c2)S1)c1ccc2cccnc2c1O (centres unmarked) [Example 8, N-[5-(3-Chlorophenyl)-4,5-dihydro-4-oxo-2-thiazolyl]-8-hydroxy-7-quinolinecarboxamide]	20.1 µM	268 to 272 °C (dec.)		
O=C(NCc1ccc([N+](=O)[O-])cc1)c1ccc2cccnc2c1O [Example 12, 8-Hydroxy-N-[(4-nitrophenyl)methyl]-7-quinolinecarboxamide]	15.9 µM	210 to 212 °C		
O=C(Nc1nc2ccc(Cl)cc2s1)c1ccc2cccnc2c1O [Example 13, N-(6-Chloro-2-benzothiazolyl)-8-hydroxy-7-quinolinecarboxamide]	> 100 µM	> 320 °C		
COc1ccc(/C=C/c2ccc3ccc(C(=O)NCc4ccc(Cl)cc4)c(O)c3n2)cc1 [Example 47, N-[(4-Chlorophenyl)methyl]-8-hydroxy-2-[2-(4-methoxyphenyl)ethenyl]-7-quinolinecarboxamide]		200 to 201 °C		0.35 µM and < 0.3 µM
O=C(NCC(O)c1ccccc1)c1ccc2ccc(/C=C/c3ccccc3)nc2c1O (centres unmarked) [Example 50, 8-Hydroxy-N-(2-hydroxy-2-phenylethyl)-2-(2-phenylethenyl)-7-quinolinecarboxamide]		83 to 86 °C		< 3.1 µM and 1.2 µM
O=C(NCc1ccc(Cl)cc1)c1ccc2ccc(/C=C/c3ccccc3)nc2c1O [Example 51, N-[(4-Chlorophenyl)methyl]-8-hydroxy-2-(2-phenylethenyl)-7-quinolinecarboxamide]		192 to 194 °C		< 3.1 µM and 0.17 µM
O=C(NCCSc1ccccc1)c1ccc2ccc(/C=C/c3ccccc3)nc2c1O [Example 52, 8-Hydroxy-2-(2-phenylethenyl)-N-[2-(phenylthio)ethyl]-7-quinolinecarboxamide]		131 to 132 °C		< 3.1 µM and 0.17 µM
COc1ccc(/C=C/c2ccc3ccc(C(=O)NCC(O)c4ccccc4)c(O)c3n2)cc1 (centres unmarked) [Example 53, 8-Hydroxy-N-(2-hydroxy-2-phenylethyl)-2-[2-(4-methoxyphenyl)ethenyl]-7-quinolinecarboxamide]		203 to 205 °C		< 3.1 µM and 0.3 µM
COc1ccc(/C=C/c2ccc3ccc(C(=O)NCCSc4ccccc4)c(O)c3n2)cc1 [Example 54, 8-Hydroxy-2-[2-(4-methoxyphenyl)ethenyl]-N-[2-(phenylthio)-ethyl]-7-quinolinecarboxamide]		163 to 165 °C		< 3.1 µM and 0.3 µM
O=C(NCc1ccc(Cl)cc1)c1ccc2ccc(C(F)(F)F)nc2c1O [Example 55, N-[(4-Chlorophenyl)methyl]-8-hydroxy-2-(trifluoromethyl)-7-quinolinecarboxamide]		92 to 94 °C		31.5 µM and 19.7 µM
O=C(Nc1nnc(C(F)(F)F)s1)c1ccc2cccnc2c1O [Example 243, 8-Hydroxy-N-[5-(trifluoromethyl)-1,3,4-thiadiazol-2-yl]-7-quinolinecarboxamide]		300 to 302 °C (dec.)		
O=C(Nc1nnc(Br)s1)c1ccc2cccnc2c1O [Example 244, N-(5-Bromo-1,3,4-thiadiazol-2-yl)-8-hydroxy-7-quinolinecarboxamide]		250 °C (dec.)		
